Source: US4892871A, “Azido-substituted octopamine agonists and the use thereof to control invertebrate pests” (The General Hospital Corporation, priority 1988, dated 1990)
Read-outs that look alike come from different tables or passages of the source. Each block holds one molecule with its values, some of them ahead of it.

Columns and labels:
[1] = test system: Light Organ Adenylate Cyclase; assay: Antagonist inhibition of agonist-stimulated light organ adenylate cyclase; format: biochemical, firefly; details: for inhibition of compound IV stimulation of adenylate cyclase (in words): stimulation by compound IV; for Ki: read-out: Calculated Ki
[2] = test system: adenylate cyclase; details: cited from earlier work
[3] = test system: octopamine receptor; assay: In vitro octopamine agonist activity in the cockroach; format: biochemical
From the text: (§1) However, use of formamidines as pest controlling agents gives rise to certain problems, including the fact that the aniline breakdown products are carcinogenic. Moreover, a further problem is that the range of activity of these compounds is limited to a relatively few insect species. Matsumura, F., et al.. Environ. Health Perspect. 14: 71-82 (1976). […] Consistent with this in vitro activity, the formamidines are toxic in Manduca but not in the cockroach.

[4] = test system: octopamine receptor; assay: In vitro octopamine agonist activity in Manduca; format: biochemical
From the text: as §1

[5] = test system: octopamine receptor protein(s); assay: SDS-polyacrylamide gel autoradiogram of light organ membrane proteins photolabeled with VIII; format: binding, firefly
[6] = test system: intact firefly light organ; assay: Light emission after injection into isolated firefly tails; format: in vivo
Description: In the second verification procedure, a bioassay was conducted which measured the effect of tritiated VIII on eliciting light emission when injected into isolated firefly tails.

[7] = test system: octopamine receptors; assay: Irreversible activation of adenylate cyclase after photolysis of firefly light organ membranes; format: biochemical; details: photolyzed, washed
From the text: When exposed to ultraviolet light in these wavelengths, the N3 azido group on the para-position is photolyzed to yield free N2 and a […] covalently with a number of protein sites, including areas with double bonds, amino groups and carboxylic acids. If compound IV is occupying an octopamine receptor at the time of photolysis, then the ligand will bind to a site on or near the receptor protein. […] To determine this, a series of photolysis experiments were performed in which firefly light organ membranes were preincubated with or without compound IV and then photolyzed. Next, the membranes were extensively washed to remove all free ligand and any ligand that was not covalently bound. Following this, adenylate cyclase activity was assayed. […] Presumably, the excess octopamine displaced compound IV so that, when the membranes were later photolyzed, octopamine (and not compound IV) was occupying the receptor. Subsequently, during washing, the octopamine was removed so that the receptor returned to its unstimulated state.

[8] = test system: Manduca larvae; assay: Antifeeding activity, Manduca larvae on sprayed tomato leaves; format: in vivo; details: percentage of leaf area remaining after 72 hours, dim light
[9] = test system: octopamine receptors; assay: Irreversible (UV) binding of compound VIII to firefly light organ membranes and displacement; details: for displacement of irreversible VIII binding (in words): other experiments, nonoctopaminergic compounds
Description: In these experiments, membranes were preincubated with the probe for under various conditions and then the mixture was photolyzed in quartz microcuvettes using a UV-C germicidal lamp. […] To determine whether the binding was specific, various displacing agents were added during the preincubation with tritiated IV (VIII), and the mixture then photolyzed.

[10] = test system: octopamine receptors; assay: Autoradiography of intact isolated firefly light organs labeled with VIII
Description: Because compound VIII binds irreversibly, it should have potential as an anatomic probe to […] localize octopamine receptors at the light microscopic level. To determine if this is feasible, some preliminary studies were conducted using intact isolated firefly light organs. The lanterns were first preincubated with VIII in dim light and then exposed either to no light or to intense UV. Following this step, the lanterns were extensively washed, then slide mounted, dehydrated, and exposed to tritium-sensitive X-ray film. […] In the absence of UV light, there was no labeling. Localization of octopamine receptors, particularly in the nervous system, should aid in an understanding of how octopamine exerts its behavioral effects in insects.

[11] = test system: octopamine-sensitive adenylate cyclase; assay: Activation of adenylate cyclase in firefly light organ membrane (broken cell) preparations; format: biochemical, Photinus pyralis; details: for Ka (concentration necessary for half-maximal activation of cyclase activity): firefly light organ membranes, reversible conditions
Description: The question of whether a given azido-substituted compound within the scope of the invention is an octopamine agonist can be readily answered by measuring adenylate cyclase activity of the octopamine-sensitive adenylate cyclase present in broken cell preparations of the firefly light organ. […] Specimens of Photinus pyralis are prepared by opening their tail sections, cleaning them, removing the light organs, and homogenizing the cyclase-containing fraction. Adenylate cyclase activity is measured in appropriate buffer-containing ATP, cofactors, and the compound to be tested. Normally, the solution mixture contains a phosphodiesterase inhibitor such as theophylline, and the assay is designed to provide linear measurements with respect to time and enzyme concentration. If necessary, the compounds to be tested are initially solubilized and appropriate solvent controls are run in parallel. The enzyme reaction is initiated by addition of ATP, stopped by heating, and centrifuged. Cyclic AMP can be measured by any test which indicates the presence thereof, preferably by the protein binding assay of Brown et al. (Advances in Cyclic Nucleotide Research 2:25-40 (1972)). The determination of the constant Ka, which is the concentration of the azido-substituted agonist necessary for half-maximal activation of cyclase activity, is carried out by measuring cyclase activity in the preparation, and plotting the activity (above control activity) versus the semilogarithm of the particular agonist concentration. This is done for a series of increasing concentrations until maximal activity (Vmax) is reached. Ka^(Azido) is then calculated from the graph as the agonist concentration required for one-half of Vmax. Ka^(Azido) is compared with the constant (Ka^oct) determined in an analogous way using ±p-octopamine as the agonist. The ratio Ka^oct /ka^(Azido) is then an indication of whether a particular azido-substituted agonist (Azido) is more (ratio greater than 1) or less (ratio smaller than 1) active than (±)-p-octopamine (oct). […]

[12] = test system: octopamine receptor; assay: Reversible binding of compound VIII to light organ membranes (filtration); parameters: species or system firefly
From the text: The low affinity of octopamine for its receptor (Ka =30 micromolar) results in a half-time of dissociation of considerably less than 0.1 second. This precludes the use of labeled octopamine as a receptor ligand since the time required for the separation of free from bound ligand during a filtration assay is several seconds. […] In other words, following washing, enough ligand will still be on the receptor to allow estimation of the receptor's binding constant for compound IV. (Because there will still be significant loss of label during filtration, one cannot use this type of assay to estimate total receptor number).

- inhibition of compound IV stimulation of adenylate cyclase (in words) [1]: inhibited
SMILES: CN1CCC(=C2c3ccccc3C=Cc3ccccc32)CC1 [Cyproheptadine, cyproheptadine]

SMILES: CNC=Nc1ccc(Cl)cc1C [DCDM, N-demethylchlordimeform]
- agonist character in adenylate cyclase stimulation [2]: partial agonist
- potency relative to octopamine in adenylate cyclase stimulation [2]: about six

- agonist character [3]: very weak and partial agonist
- agonist character [4]: full agonist
- potency relative to octopamine [4]: 20 fold
SMILES: Cc1cc(Cl)ccc1N=CN [DDCDM, didemethylchlordimeform]

SMILES: CN1CCN2c3ccccc3Cc3ccccc3C2C1 (centres unmarked) [Mianserin, mianserin]
- inhibition of compound IV stimulation of adenylate cyclase (in words) [1]: inhibited
- effect on VIII labeling of the protein peak at MW 74,000 ([5]; excess antagonist present during photolysis): completely blocked

- Ki ([1]; inhibiting stimulation by DCDM (a formamidine)): 18 µM
- Ki ([1]; inhibiting stimulation by compound IV): 20 µM
- Ki ([1]; inhibiting stimulation by octopamine (OCT)): 46 µM
- inhibition of compound IV stimulation of adenylate cyclase (in words) [1]: inhibited
SMILES: Cc1ccc(N(CC2=NCCN2)c2cccc(O)c2)cc1 [Phentolamine, phentolamine]

- inhibition of compound IV stimulation of adenylate cyclase (in words) [1]: less potent
SMILES: CC(C)NCC(O)COc1cccc2ccccc12 (centres unmarked) [Propranolol, propranolol]

- increase in adenylate cyclase activity after prior photolysis and washing ([7]; membranes preincubated with compound): 3 fold
SMILES: CCc1cc(N=[N+]=[N-])cc(CC)c1N=C1NCCN1 [compound IV, (4-azido-2,6-diethylphenyl)imino-2-imidazoline]
- potency relative to octopamine in stimulating light emission ([6]; injected into isolated firefly tails): about 15 fold
- potency relative to octopamine in inhibiting feeding [8]: about 10 fold

- increase in amount of label permanently bound on exposure to UV light ([9]; photolyzed vs no UV): 14 fold
- labeling of the lantern ([10]; absence of UV light): no labeling
- labeling of the lantern ([10]; exposed to intense UV): marked labeling
- concentration at which specific binding saturates ([12]; specific binding = absence minus presence of 1000-fold excess mianserin): about 2 micromolar
- Kd ([12]; specific binding, light organ membranes, read-out: concentration at which 50% binding occurs): ~0.8 µM
- proteins labeled on gel ([5]; absence of UV radiation (lane C)): no proteins were labeled
- proteins labeled on gel ([5]; photolyzed with UV (lane A)): Four major labeled peaks
SMILES: [3H]c1c(CC)c(N=C2NCCN2)c(CC)c([3H])c1N=[N+]=[N-] [compound VIII, 2-(4-azido-2,6-diethyl-3,5-ditritiophenyl)imino-2-imidazoline]
- Ka (concentration necessary for half-maximal activation of cyclase activity) [11]: about 0.5 micromolar
- adenylate cyclase activity profile compared with unlabeled IV ([11]; light organ membranes): virtually identical
- light response compared with genuine unlabeled compound ([6]; injection of 0.5 nmoles into isolated firefly tails): identical

- displacement of irreversible VIII binding (in words) [9]: not displaced
SMILES: NCCc1ccc(O)c(O)c1 [dopamine]

- displacement of irreversible VIII binding (in words) [9]: not displaced
SMILES: NCCc1c[nH]cn1 [histamine]

- displacement of irreversible VIII binding (in words) [9]: not displaced
SMILES: NC[C@H](O)c1ccc(O)c(O)c1 [norepinephrine]

SMILES: NCC(O)c1ccc(O)cc1 (centres unmarked) [octopamine]
- Ka (concentration necessary for half-maximal activation of cyclase activity) [11]: 30 µM
- irreversible activation after preincubation with compound alone [7]: failed to cause any irreversible activation

- displacement of irreversible VIII binding (in words) [9]: not displaced
SMILES: NCCc1c[nH]c2ccc(O)cc12 [serotonin]
